According to PubChem BioAssay (NCI):
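How tested: cells in 96-well plates exposed to compound for 48 hours at five concentrations. At the TGI there is no net growth.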

Legend:
Experiment in all cases: NCI-60 cell line screen, 48 h
786-0 renal = system: 786-0 renal
A498 renal = system: A498 renal
A549 NSCLC = system: A549 NSCLC
ACHN renal = system: ACHN renal
BT-549 breast = system: BT-549 breast
CAKI-1 renal = system: CAKI-1 renal
CCRF-CEM leukemia = system: CCRF-CEM leukemia
COLO 205 colon = system: COLO 205 colon
DU-145 prostate = system: DU-145 prostate
EKVX NSCLC = system: EKVX NSCLC
HCC-2998 colon = system: HCC-2998 colon
HCT-116 colon = system: HCT-116 colon
HCT-15 colon = system: HCT-15 colon
HL-60(TB) leukemia = system: HL-60(TB) leukemia
HS 578T breast = system: HS 578T breast
HT29 colon = system: HT29 colon
IGROV1 ovarian = system: IGROV1 ovarian
K-562 leukemia = system: K-562 leukemia
KM12 colon = system: KM12 colon
LOX IMVI melanoma = system: LOX IMVI melanoma
M14 melanoma = system: M14 melanoma
MCF7 breast = system: MCF7 breast
MDA-MB-231 breast = system: MDA-MB-231 breast
MDA-MB-435 = system: MDA-MB-435
MDA-N = system: MDA-N
MOLT-4 leukemia = system: MOLT-4 leukemia
NCI-H226 lung = system: NCI-H226 lung
NCI-H23 lung = system: NCI-H23 lung
NCI-H460 lung = system: NCI-H460 lung
NCI-H522 lung = system: NCI-H522 lung
NCI/ADR-RES ovarian = system: NCI/ADR-RES ovarian
OVCAR-3 ovarian = system: OVCAR-3 ovarian
OVCAR-4 ovarian = system: OVCAR-4 ovarian
OVCAR-5 ovarian = system: OVCAR-5 ovarian
OVCAR-8 ovarian = system: OVCAR-8 ovarian
PC-3 prostate = system: PC-3 prostate
RPMI-8226 leukemia = system: RPMI-8226 leukemia
RXF 393 renal = system: RXF 393 renal
SF-268 CNS = system: SF-268 CNS
SF-295 CNS = system: SF-295 CNS
SF-539 CNS = system: SF-539 CNS
SK-MEL-2 melanoma = system: SK-MEL-2 melanoma
SK-MEL-28 melanoma = system: SK-MEL-28 melanoma
SK-MEL-5 melanoma = system: SK-MEL-5 melanoma
SK-OV-3 ovarian = system: SK-OV-3 ovarian
SN12C renal = system: SN12C renal
SNB-19 CNS = system: SNB-19 CNS
SNB-75 CNS = system: SNB-75 CNS
SR leukemia = system: SR leukemia
SW-620 colon = system: SW-620 colon
T-47D breast = system: T-47D breast
TK-10 renal = system: TK-10 renal
U251 CNS = system: U251 CNS
UACC-257 melanoma = system: UACC-257 melanoma
UACC-62 melanoma = system: UACC-62 melanoma
UO-31 renal = system: UO-31 renal
HOP-62 NSCLC = system: HOP-62 NSCLC
HOP-92 NSCLC = system: HOP-92 NSCLC

CC(C)c1cc(Cl)nc(Cl)n1
TGI (786-0 renal): > 100 µM | TGI (A498 renal): > 100 µM | TGI (A549 NSCLC): > 100 µM | TGI (ACHN renal): > 100 µM | TGI (BT-549 breast): > 100 µM | TGI (CAKI-1 renal): > 100 µM | TGI (CCRF-CEM leukemia): > 100 µM | TGI (COLO 205 colon): > 100 µM | TGI (DU-145 prostate): > 100 µM | TGI (EKVX NSCLC): > 100 µM | TGI (HCC-2998 colon): > 100 µM | TGI (HCT-116 colon): > 100 µM | TGI (HCT-15 colon): > 100 µM | TGI (HL-60(TB) leukemia): > 100 µM | TGI (HS 578T breast): > 100 µM | TGI (HT29 colon): > 100 µM | TGI (IGROV1 ovarian): > 100 µM | TGI (K-562 leukemia): > 100 µM | TGI (KM12 colon): > 100 µM | TGI (LOX IMVI melanoma): > 100 µM | TGI (M14 melanoma): > 100 µM | TGI (MCF7 breast): > 100 µM | TGI (MDA-MB-231 breast): > 100 µM | TGI (MDA-MB-435): > 100 µM | TGI (MDA-N): > 100 µM | TGI (MOLT-4 leukemia): > 100 µM | TGI (NCI-H226 lung): > 100 µM | TGI (NCI-H23 lung): > 100 µM | TGI (NCI-H460 lung): > 100 µM | TGI (NCI-H522 lung): > 100 µM | TGI (NCI/ADR-RES ovarian): > 100 µM | TGI (OVCAR-3 ovarian): > 100 µM | TGI (OVCAR-4 ovarian): > 100 µM | TGI (OVCAR-5 ovarian): > 100 µM | TGI (OVCAR-8 ovarian): > 100 µM | TGI (PC-3 prostate): > 100 µM | TGI (RPMI-8226 leukemia): > 100 µM | TGI (RXF 393 renal): > 100 µM | TGI (SF-268 CNS): > 100 µM | TGI (SF-295 CNS): > 100 µM | TGI (SF-539 CNS): > 100 µM | TGI (SK-MEL-2 melanoma): > 100 µM | TGI (SK-MEL-28 melanoma): > 100 µM | TGI (SK-MEL-5 melanoma): > 100 µM | TGI (SK-OV-3 ovarian): > 100 µM | TGI (SN12C renal): > 100 µM | TGI (SNB-19 CNS): > 100 µM | TGI (SNB-75 CNS): > 100 µM | TGI (SR leukemia): > 100 µM | TGI (SW-620 colon): > 100 µM | TGI (T-47D breast): > 100 µM | TGI (TK-10 renal): > 100 µM | TGI (U251 CNS): > 100 µM | TGI (UACC-257 melanoma): > 100 µM | TGI (UACC-62 melanoma): > 100 µM | TGI (UO-31 renal): > 100 µM

OC1(c2ccccc2)c2ccccc2NC2=NCCN21 (configuration not stated)
TGI (786-0 renal): > 100 µM | TGI (A498 renal): > 100 µM | TGI (A549 NSCLC): > 100 µM | TGI (ACHN renal): > 100 µM | TGI (BT-549 breast): > 100 µM | TGI (CAKI-1 renal): > 100 µM | TGI (COLO 205 colon): 99.6 µM | TGI (DU-145 prostate): > 100 µM | TGI (EKVX NSCLC): > 100 µM | TGI (HCC-2998 colon): 31.3 µM | TGI (HCT-116 colon): > 100 µM | TGI (HCT-15 colon): > 100 µM | TGI (HL-60(TB) leukemia): > 100 µM | TGI (HOP-62 NSCLC): > 100 µM | TGI (HOP-92 NSCLC): > 100 µM | TGI (HS 578T breast): > 100 µM | TGI (HT29 colon): > 100 µM | TGI (IGROV1 ovarian): > 100 µM | TGI (KM12 colon): > 100 µM | TGI (LOX IMVI melanoma): > 100 µM | TGI (M14 melanoma): > 100 µM | TGI (MCF7 breast): > 100 µM | TGI (MDA-MB-231 breast): > 100 µM | TGI (MDA-MB-435): > 100 µM | TGI (MDA-N): > 100 µM | TGI (MOLT-4 leukemia): 52.2 µM | TGI (NCI-H226 lung): > 100 µM | TGI (NCI-H23 lung): > 100 µM | TGI (NCI-H460 lung): > 100 µM | TGI (NCI-H522 lung): > 100 µM | TGI (NCI/ADR-RES ovarian): > 100 µM | TGI (OVCAR-3 ovarian): > 100 µM | TGI (OVCAR-4 ovarian): > 100 µM | TGI (OVCAR-5 ovarian): > 100 µM | TGI (OVCAR-8 ovarian): > 100 µM | TGI (PC-3 prostate): > 100 µM | TGI (RPMI-8226 leukemia): 45.8 µM | TGI (RXF 393 renal): > 100 µM | TGI (SF-268 CNS): > 100 µM | TGI (SF-295 CNS): > 100 µM | TGI (SF-539 CNS): > 100 µM | TGI (SK-MEL-2 melanoma): > 100 µM | TGI (SK-MEL-28 melanoma): > 100 µM | TGI (SK-MEL-5 melanoma): > 100 µM | TGI (SK-OV-3 ovarian): > 100 µM | TGI (SN12C renal): > 100 µM | TGI (SNB-19 CNS): > 100 µM | TGI (SNB-75 CNS): > 100 µM | TGI (SR leukemia): 45 µM | TGI (SW-620 colon): > 100 µM | TGI (T-47D breast): > 100 µM | TGI (TK-10 renal): > 100 µM | TGI (U251 CNS): > 100 µM | TGI (UACC-257 melanoma): > 100 µM | TGI (UACC-62 melanoma): > 100 µM | TGI (UO-31 renal): > 100 µM
